“Also recorded” adds a separate entry of the source. Bridges are numbered along the chain shown (N, C = ends). Where no end group is shown, it is not given here.
Tests used:
rat perfused colon = assay: GLP-1 secretion from rat perfused colon ex vivo
Experimental: Ex vivo rat colon vascular perfusion experiments were performed as previously described (Plaisancié, 1995). Male Sprague-Dawley rats (300 g) were purchased from Charles River and fed ad libitum with Purina Lab Chow #5001 (WF Fisher and Son Inc Sommerville, N.J.). Rats were decapitated and the abdomen was opened with a midline incision. […] The arterial vascular perfusion started immediately with an oxygenated Krebs-Henseleit buffer containing-solution at a rate of 2 mL/minute [solution: Krebs-Henseleit buffer (25.0 mM NaHCO3; 118 mM NaCl; 4.7 mM KCl; 1.2 mM MgSO4; 1.2 mM KH2PO4; 2.5 mM CaCl2) with 3% BSA, 5 mM glucose, MEM essential and nonessential amino acids (pH 7.4)]. The colonal lumen was perfused at the rate of 0.5 mL/minute. The remaining colon and small intestine were removed after the ligation of their respective supplying vessels. After the colon preparation was transferred to a 37° C. tissue bath, the portal effluent was collected as 5 minute fractions. The fraction aliquots were frozen at −20° C. for subsequent determinations of GLP-1. EDN3 97-140 was dissolved at 200 nM in vascular perfusion solution and perfused into the artery after a 30 minute baseline collection. […] The GLP-1 detection assay was carried out by using a commercial kit for active GLP-1 (7-36) amide according to the manufacturer's instructions (Millipore). GLP-1 release data was normalized to % baseline using the average of fractions collected prior to treatment as the baseline value and the peak data following each treatment. The average data across 3 independent experiments was reported comparing EDN3 97-140 versus control (baseline) and forskolin versus control (baseline). Statistical analysis was performed by one sided Satterwaite's test due to unequal variance and the Holm test was applied to account for multiple comparisons.

3T3L1 adipocyte = 3T3L1 adipocyte basal glucose uptake; format: cell-based; conditions: 10 μM (data not shown)
C57BL6J male mice = assay: Indirect calorimetry and telemetry in mice after injection into the preoptic area; format: in vivo, mouse; conditions: 2.5 nmol by direct injection into the POA
Experimental: C57BL6J male mice (3-4 months old, 25-30 g, 6 mice per group) were purchased from Harlan. […] Energy expenditure measures (VO2, VCO2 and heat formation ((3.815+1.232*RER)*VO2 (in liters)) were corrected for estimated effective metabolic mass per Kleiber's power function (Kleiber, 1947). Mice undergoing indirect calorimetry were acclimated to the respiratory chambers for 3-4 days before the onset of study. Data were recorded under ambient room temperature clamped at 25° C., beginning from the onset of the light cycle (12:12 hour light-dark cycle; lights on at 6:00 a.m.) for 3 days. Treatments were administered directly to the POA via an implanted cannula (anterior from bregma: 0.3 mm, midline, ventral: 3.8 mm, cannula 26 GA, 10 mm length) using an injector (33 GA, protruding 0.4 mm beyond the tip of the cannula, total length 10.4 mm) connected to plastic tubing and a microsyringe (10 μL) in a volume of 0.5 μL over a period of 5 minutes to allow diffusion. […]

ob/ob mice = assay: Glucose tolerance (IPGTT) in ob/ob mice; format: in vivo, mouse; conditions: for reduction in glucose: overnight fast, 0.6 mg/kg glucose challenge i.p., mean±SEM n=8
Experimental: DIO mice fed on a high fat diet for 14 weeks and ob/ob mice were purchased from Jackson Labs. Ob/Ob mice and DIO mice used in all studies were used at 7 and 18 weeks old, respectively. After an overnight fast, ob/ob and DIO mice were injected with vehicle (20 mM Na acetate/140 mM NaCl) or EDN3 97-140 (0.1, 1 or 10 mg/kg i.p.) followed by a […] (i.p.) or 2 g/kg (i.p.) D-glucose challenge in ob/ob and DIO mice respectively. Plasma glucose levels were determined from mouse tail vein bleeds at 0, 15, 30, 60, and 120 minutes after compound injection and measured using an automatic glucometer (Alpha-Trak). To determine the acute insulin release, plasma insulin levels were measured by using an ELISA kit with mouse insulin as a standard (Meso Scale Discovery). Results were expressed as percentages of vehicle concentrations and statistical significance determined by 2-way ANOVA repeated measures.

CTCFTYKDKECVYYCHLDIIWINTPEQTVPYGLSNYRESLRGKR-NH2 (disulfide 1-15, 3-11) [EDN3 97-140]
increase in GLP secretion from the rat perfused colon (rat perfused colon; 200 nM perfused via the superior mesenteric artery, vs baseline, p=0.0438): 56±18%
increase in GLP-1 release (rat perfused colon; 200 nM, rat perfused colon): ~10 pM
effect on 3T3L1 adipocyte basal glucose uptake (3T3L1 adipocyte): no effect
locomotor activity (C57BL6J male mice): transient spike of increased locomotor activity; also recorded: transient increase in locomotor activity
reduction in glucose (ob/ob mice; 1 mg/kg i.p. single bolus): 35.1±13%
reduction in glucose (ob/ob mice; 10 mg/kg i.p. single bolus): 31.3±6.9%
glucose excursion curve in response to an IPGTT (ob/ob mice; acute peripheral administration 0.1, 1 or 10 mg/kg i.p.): decreased
insulin secretion during IPGTT (ob/ob mice; i.p., trend towards an increase at 30 minutes at 10 mg/kg (p>0.05), 10 mg/kg): not statistically significant; also recorded: no statistically significant effect on insulin
